The source of these data is patent US11254907B2, “Fungal volatile organic compound enhances plant s growth characteristics” (The United States of America as represented by the …, priority 2018, dated 2022).

Experiment [1] has as its system peach rootstock 'Bailey-OP' (Prunus persica). Description: Root primordia induction from peach in vitro shoots on mLP with IBA. It counts as in vivo. As to the method: A two-step process was tested to induce roots from in vitro shoots and establish plants in the greenhouse. In vitro shoots of the peach rootstock ‘Bailey-OP’ (Prunus persica) of longer than 2 cm in height were first transferred to a modified Lepoivre LP medium (mLP) containing basal salts of LP medium (Quorin and Lepoivre, Acta Hort. 78:437-442, 1977) and a vitamin mixture composed of 1.0 mg/L thiamine-HCl, 1.0 mg/L nicotinic acid, 1.0 mg/L pyridoxine-HCl, 4.0 mg/L glycine, 0.2 mg/L biotin and 2.0 mg/L Ca-pathothenate (mLP) supplemented with various concentrations of indole-3-butyric acid (IBA) and cultured for two weeks to induce root primordia. The IBA concentrations ranged from 0.5 to 2.0 mg/L. Shoots with root primordia at the base were then taken out and separated into two groups. The first group was cultured on mLP medium without any growth regulators for continuous plant development as a control, whereas the second group was maintained on a similar growth regulator-free mLP medium but with a culture tube closure containing MVOC-emitting fungus of C. sp isolate TC09 (Accession No. NRRL 67603).

Experiment [2] deals with tobacco seedlings. Description: Polar auxin transport interference test (NPA in plant culture medium with MVOCs). The conditions noted are these: 10 μM NPA, 20 days. It counts as in vivo, Nicotiana tabacum. As to the method:
In vitro containment conditions for fungal cultures were modified to utilize culture tube closure or cap (3×4 cm, diameter×length, closure for 25 mm culture tubes, Sigma C5791) in order to mitigate problems related to condensation build-up inside the filter-sealed microcentrifuge tubes that could suffocate growing fungus and reduce MVOC emission, as subsequently noticed. For each sterile closure cap, 5 ml semi-solid MS medium was added and 10 μl of conidial suspension at a density of 1×10^5 CFU per ml was subsequently introduced. The fungal culture in the closure was then placed in a Magenta™ GA7 vessel that contains tobacco seedlings. For controls, a blank culture cap was added. All experiments were repeated three times. Each involved three treated and untreated vessels, respectively, and three replicate plants for each vessel. Cultures were placed under light conditions with a 16-h photoperiod at 25° C. Plants were treated with 10 or 20 d of fungal exposure duration. Regardless of exposure duration used, plant growth was monitored and compared with controls without fungal cultures at the end of 20 d after introduction of fungal cultures. For polar auxin transport interference tests, 10 μM auxin transport inhibitor N-1-naphthylphthalamic acid (NPA) is incorporated in plant culture medium and used to assess plant response in the presence of MVOCs. […]

The conditions of experiment [3]: NPA as low as 5 μM; cited from earlier work.

For the molecule `O=C(O)CCCc1c[nH]c2ccccc12` [IBA, indole-3-butyric acid], the root formation efficiency entry in experiment [1] (0.5 mg/L IBA) is “very low root formation efficiency”. In addition, the root formation frequency entry in experiment [1] (1.0 mg/L IBA) was “up to 70%”. Moreover, the root induction efficiency result in experiment [1] (1.5 mg/L IBA) is recorded as “great reduction in root induction efficiency”; in experiment [1] (2.0 mg/L IBA), “less than 20%”.

As to `O=C(O)c1ccccc1C(=O)Nc1cccc2ccccc12` [NPA, N-1-naphthylphthalamic acid], in experiment [2], the “effect on root length, number of leaves and largest leaf length of C. sp treated plants” value was “remained similar”; the lateral root formation entry was “arrested lateral root formation”. In addition, in experiment [3], the “effect on stimulatory effects of Fusarium oxysporum MVOCs on plant biomass increase” value is recorded as “completely negating”.
